No end group written: not given here.

Assay [1] concerns the target T1, PACAP-R2 (Homo sapiens, UniProt P32241).
T1 construct: expressed in transfected cells; host or cells: CHO cells
T1 sequence (P32241 31-457): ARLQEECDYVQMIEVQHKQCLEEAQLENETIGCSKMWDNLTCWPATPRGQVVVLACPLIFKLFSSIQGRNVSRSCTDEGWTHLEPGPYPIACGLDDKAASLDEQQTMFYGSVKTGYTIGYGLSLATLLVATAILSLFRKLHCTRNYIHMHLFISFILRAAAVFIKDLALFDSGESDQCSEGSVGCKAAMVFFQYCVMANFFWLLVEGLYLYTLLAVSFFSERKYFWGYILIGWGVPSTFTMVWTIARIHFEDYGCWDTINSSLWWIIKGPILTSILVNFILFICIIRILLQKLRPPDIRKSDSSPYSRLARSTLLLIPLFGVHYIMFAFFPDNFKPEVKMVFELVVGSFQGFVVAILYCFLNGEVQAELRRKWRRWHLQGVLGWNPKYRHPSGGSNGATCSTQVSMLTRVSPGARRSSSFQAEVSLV
Description: Cyclic AMP SPA on CHO cells transfected with PACAP-R2. Format: cell-based. The following applies: cAMP SPA, concentration at which 50% of maximum PACAP27 activity is achieved, NA = no detectable activities, read-out: R2 EC50. The method, boiled down:
(§1)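 Transfected CHO cells grown 24 h were exposed to peptide for 15 min at 37 C in Hepes-PBS-BSA containing 100 uM IBMX, 0.4 mg/ml soybean trypsin inhibitor and 0.5 mg/ml bacitracin. Cellular cAMP was measured by scintillation proximity assay. EC50 is the peptide concentration giving 50% of maximal PACAP27 activity.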

Assay [2] addresses T2, PACAP-R3 (Homo sapiens, UniProt P41587).
T2 sequence (P41587 24-438): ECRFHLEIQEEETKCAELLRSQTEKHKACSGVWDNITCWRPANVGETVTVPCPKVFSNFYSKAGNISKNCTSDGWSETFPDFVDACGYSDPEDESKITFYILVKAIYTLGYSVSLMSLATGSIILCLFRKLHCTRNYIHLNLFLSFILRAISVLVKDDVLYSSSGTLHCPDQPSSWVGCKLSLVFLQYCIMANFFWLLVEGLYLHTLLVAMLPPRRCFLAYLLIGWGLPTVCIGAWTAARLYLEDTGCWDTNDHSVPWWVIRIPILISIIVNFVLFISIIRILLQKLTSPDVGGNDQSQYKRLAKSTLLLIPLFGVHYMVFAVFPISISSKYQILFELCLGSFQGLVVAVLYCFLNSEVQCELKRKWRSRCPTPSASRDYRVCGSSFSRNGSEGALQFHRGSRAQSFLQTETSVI
Description: Cyclic AMP SPA on CHO cells expressing PACAP R3. Format: cell-based. Also noted: expressed in transfected cells; host or cells: CHO cells (Geneticin selection). The following applies: for EC50: cAMP SPA, CHO cells transfected with PACAP-R3, concentration at which 50% of maximum PACAP27 activity is achieved, NA = no detectable activities, read-out: R3 EC50; for R3 Selectivity: ratio of EC50 at R2 versus EC50 at R3. The method, boiled down:
as §1

In assay [3] the target is T3, PACAP-R3 (human, UniProt P41587 24-438).
T3 sequence (looked up): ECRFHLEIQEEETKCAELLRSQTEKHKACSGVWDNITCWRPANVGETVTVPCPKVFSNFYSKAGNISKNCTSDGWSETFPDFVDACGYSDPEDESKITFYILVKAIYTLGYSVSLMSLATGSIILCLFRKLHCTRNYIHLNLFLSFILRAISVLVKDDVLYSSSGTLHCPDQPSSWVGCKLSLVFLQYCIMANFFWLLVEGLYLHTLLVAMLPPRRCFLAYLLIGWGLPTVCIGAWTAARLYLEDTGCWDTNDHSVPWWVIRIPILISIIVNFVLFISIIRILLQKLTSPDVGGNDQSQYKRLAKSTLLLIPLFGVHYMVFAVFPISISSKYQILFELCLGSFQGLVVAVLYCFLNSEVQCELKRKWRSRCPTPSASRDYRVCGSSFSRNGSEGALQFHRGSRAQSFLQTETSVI
Description: cell-based or functional assay.

As for “HSDAVFTDNYTRLRKQVAAKKYLQSILNKR [Peptide R3P93]”, the EC50 (commonly the midpoint of the concentration-response curve) in assay [1] was 6 nM. In addition, in assay [2], the EC50 was determined as 0.14 nM and the “R3 Selectivity” value is 40.
The corresponding values for “H-HSDAVFTDNYTRLRKQMAAKKYLNSIQNKR [Peptide R3P127]” are 300 nM, 0.5 nM and 600.
The corresponding values for “H-HSDGIFTDSYSRYRKQMAVKKYKAAVL-NH2 [PAC23]” are 170 nM, 13 nM and 13.
On the same counts, the results for “HSDAVFTENYTRLRKQMAVKKYLNSLKK-NH2 [Peptide R3P7]” are 2 nM, 4 nM and 0.5.
Consider “HSDAVFTDNYTRLRKQMAVKKYLNSIKK-NH2 [Peptide R3P8]”, for which, in assay [1], the EC50 was determined as 2 nM. For the same molecule, in assay [2], the EC50 was determined as 1.4 nM and the “R3 Selectivity” value worked out at 1.5.
“H-HSDGIFTDSYSRYRKQLAAKKYLADVKKGGT [Peptide R3P37]”: in assay [1], the EC50 worked out at 71 nM. Moreover, in assay [2], the EC50 stood at 4 nM and the “R3 Selectivity” value is 18.
On the same counts, the results for “HSDAVFTDNYTRLRKQMAAKKYLNSINNKR [Peptide R3P125]” are 60 nM, 2 nM and 30.
HSDGIFTDSYSRYRKQMAVKEYLAAVL-NH2 [PAC21]: the concentration for a half-maximal effect (EC50) in assay [1] amounted to 2.5 nM. Further, in assay [2], the EC50 amounted to 0.24 nM and the “R3 Selectivity” value amounted to 10.
On the same counts, the results for “HSDAVFTDNYTRLRKQLAAKKYLNDILNGGT [Peptide R3P27]” are 6.4 nM, 0.8 nM and 8.
On the same counts, the results for “HSDAVFTDNYTRLRKQMAAKKYLNSIPNRI [rR3P179]” are 230 nM, 1.5 nM and 150.
The corresponding values for “HSDAVFTDNYTRLRKQMAAKKYLNSITNKR [Peptide R3P130]” are 40 nM, 1 nM and 40.
Turning to “HSDAVFTDNYTRLRKQMAAKKYLNSIKNKN [Peptide R3P164]”, the EC50 in assay [1] came out at 100 nM; in assay [2], 0.3 nM. Further, the “R3 Selectivity” value in assay [2] is reported as 300.
Consider HSDGIFTDSYSRYRKQMAVEKYLAAVL-NH2 [PAC20], for which the EC50 in assay [1] was 20 nM. Also, in assay [2], the EC50 stood at 0.7 nM and the “R3 Selectivity” value is on record as 30.
On the same counts, the results for “HSDAVFTDNYTRLRKQMAAKKYLNSIKNRR [Peptide R3P147]” are 100 nM, 0.2 nM and 500.
On the same counts, the results for “HSDAVFTDNYTRLRKQVAVKKYLQSILKKRY [Peptide R3P87]” are 0.6 nM, 0.2 nM and 3.
On the same counts, the results for “HSDAVFTDNYTRLRKQMAVKKYLNSILK [Peptide R3P43]” are 0.8 nM, 0.08 nM and 10.
“HSDAVFTENYTKLRKQLAAKKYLNDLKK [Peptide R3P5]”: the EC50 in assay [1] is 200 nM; in assay [2], 7 nM. Further, in assay [2], the “R3 Selectivity” value was found to be 30.
The corresponding values for “HSDAVFTDNYTRLRKQMAAKKYLNSIKKKRY [Peptide R3P52]” are > 100 nM, 0.4 nM and >250.
Turning to “HSDAVFTDNYTRLRKQMARKKYLNSIPNRI [rR3P182]”, the EC50 in assay [1] amounted to 280 nM; in assay [2], 3.2 nM. In addition, the “R3 Selectivity” value in assay [2] stood at 90.
The corresponding values for HSDGIFTDSYSRYRKQMAVKKYLAAKL-NH2 [PAC26] are 0.25 nM, 0.3 nM and 1.
On the same counts, the results for “HSDAVFTDNYTRLRKQMASKKYLNSIKNRI [rR3P178]” are 80 nM, 0.75 nM and 110.
On the same counts, the results for “HSDAVFTDNYTRLRKQMAWKKYLNSIKNKR [Peptide R3P114]” are 20 nM, 2 nM and 10.
For the molecule “HSDAVFTDNYTRLRKQMAVKKYLNSIKKKRY [Peptide R3P56]”, the EC50 in assay [1] was 40 nM. For the same molecule, in assay [2], the EC50 stood at 0.4 nM and the “R3 Selectivity” value is 100.
On to “HSDAVFTDNYTRLRKQLAAKKYLNDIKKQ [Peptide R3P34]”, for which the EC50 in assay [1] was > 100 nM. In addition, in assay [2], the EC50 is 1.4 nM and the “R3 Selectivity” value is recorded as >70.
On the same counts, the results for “HSDAVFTDNYTRLRKQMAAKKYLNSIKNKP [Peptide R3P165]” are 150 nM, 0.5 nM and 300.
On the same counts, the results for “HSDAVFTDNYTRLRKQMAAKKYLNSIKNDR [Peptide R3P136]” are 20 nM, 0.3 nM and 70.
On the same counts, the results for “H-HSDGIFTDSYSRYRKQMAVKKYLAAVKQGGT-NH2 [Peptide R3P16]” are 14 nM, 10 nM and 1.4.
Consider “HSDAVFTDNYTRLRKQMAAKKYLNSIVNKR [Peptide R3P131]”, for which, in assay [1], the EC50 turned out to be 20 nM. Further, in assay [2], the EC50 came out at 0.3 nM and the “R3 Selectivity” value worked out at 70.
On the same counts, the results for “HSDAVFTDNYTRLRKQMAAKKYLNSIRNKR [Peptide R3P128]” are 60 nM, 0.3 nM and 200.
In the case of HSDGIFTDSYSRYRKQMAVKKYLAAVK-NH2 [PAC27], the EC50 in assay [1] is 1.5 nM; in assay [2], 1.1 nM. The “R3 Selectivity” value in assay [2] was 1.4.
On the same counts, the results for “HSDAVFTDNYTRLRKQMAAKKYLNSIKNGR [Peptide R3P139]” are 20 nM, 0.4 nM and 50.
HSDKIFTDSYSRYRKQMAVKKYLAAVL-NH2 [PAC4]: in assay [3], the “R3 EC50, nM (cAMP SPA)” value came to 7 nM and the “R3 Selectivity” value came out at 6 ratio.
On the same counts, the results for HSDAVFTDNYTRLRKQMAAKKYLNSIKNKP [R3P165] are 0.5 nM and 300 ratio.
Regarding HSDAVFTDNYTRLRKQMAAKKYLNSIKNKS [R3P167], the “R3 EC50, nM (cAMP SPA)” value in assay [3] was 1 nM.
Same read-out and setting: the same measure for HSDAVFTDDYTRLRKEVAAKKYLESIKDKRY [R3P173]: 200 nM; for HSDAVFTDNYTRLRKQMAAKKYLNSIKNKY [R3P171]: 0.4 nM; for HKDGIFTDSYSRYRKQMAVKKYLAAVL-NH2 [PAC2]: 34 nM.
Regarding HSDAVFTDNYTRLRKQVAAKKYLQSIKNKRYSWCEPGWCR [R3P172], in assay [3], the “R3 EC50, nM (cAMP SPA)” value came to 2.6 nM and the “R3 Selectivity” value was found to be 29 ratio.
The corresponding values for HSDAVFTDNYTRLRKQMAAKKYLNSIKNKT [R3P168] are 0.2 nM and 300 ratio.
For ESDGIFTDSYSRYRKQMAVKKYLAAVL-NH2 [PAC1], in assay [3], the “R3 EC50, nM (cAMP SPA)” value is 10 nM and the “R3 Selectivity” value worked out at 97 ratio.
On the same counts, the results for HSDGIFTKSYSRYRKQMAVKKYLAAVL-NH2 [PAC8] are 47 nM and 1 ratio.
The corresponding values for HSDAVFTDNYTRLRKQMAAKKYLNSIKNKV [R3P169] are 0.2 nM and 300 ratio.

Values taken from patent US6972319B1, “Pituitary adenylate cyclase activating peptide (PACAP)receptor 3 (R3) agonists and their pharmacological methods of use” (priority 1999, dated 2005).
